Read-outs that look alike come from different tables or passages of the source.
Key:
Assay type in all cases: cell-based
A549/ATCC = test: NCI 60 antitumor screening (single dose); settings: Homo sapiens; A549/ATCC (non-small cell lung cancer), single dose 10 μM; read-out: Growth inhibition percentage (GI %)
How it was run: (§1)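 Compounds were tested at a single 10 μM dose against the NCI 60-cell-line panel (nine tumour types), in triplicate. Growth was recorded as percent growth (G%) of treated cells, and growth inhibition was taken as GI% = 100 − G%.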

CAKI-1 = test: NCI 60 antitumor screening (single dose); settings: Homo sapiens; CAKI-1 (renal cancer), single dose 10 μM; read-out: Growth inhibition percentage (GI %)
How it was run: as §1

HCC-2998 = test: NCI 60 antitumor screening (single dose); settings: Homo sapiens; HCC-2998 (colon cancer), single dose 10 μM; read-out: Growth inhibition percentage (GI %)
How it was run: (§2)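 At one concentration (10 μM), compounds are run in triplicate on 60 human cancer lines per the NCI method. Treated-cell growth is recorded as G%. Reported inhibition equals 100 − G%.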

HOP-62 = test: NCI 60 antitumor screening (single dose); settings: Homo sapiens; HOP-62 (non-small cell lung cancer), single dose 10 μM; read-out: Growth inhibition percentage (GI %)
How it was run: as §2

HS 578T = test: NCI 60 antitumor screening (single dose); settings: Homo sapiens; HS 578T (breast cancer), single dose 10 μM; read-out: Growth inhibition percentage (GI %)
How it was run: as §1

KM 12 = test: NCI 60 antitumor screening (single dose); settings: Homo sapiens, KM12; KM 12 (colon cancer), single dose 10 μM; read-out: Growth inhibition percentage (GI %)
How it was run: as §1

M14 = test: NCI 60 antitumor screening (single dose); settings: Homo sapiens; M14 (melanoma), single dose 10 μM; read-out: Growth inhibition percentage (GI %)
How it was run: as §1

MCF7 = test: NCI 60 antitumor screening (single dose); settings: Homo sapiens; MCF7 (breast cancer), single dose 10 μM; read-out: Growth inhibition percentage (GI %)
How it was run: as §1

NCI-H226 = test: NCI 60 antitumor screening (single dose); settings: Homo sapiens; NCI-H226 (non-small cell lung cancer), single dose 10 μM; read-out: Growth inhibition percentage (GI %)
How it was run: as §1

NCI-H23 = test: NCI 60 antitumor screening (single dose); settings: Homo sapiens; NCI-H23 (non-small cell lung cancer), single dose 10 μM; read-out: Growth inhibition percentage (GI %)
How it was run: as §2

NCI-H322M = test: NCI 60 antitumor screening (single dose); settings: Homo sapiens; NCI-H322M (non-small cell lung cancer), single dose 10 μM; read-out: Growth inhibition percentage (GI %)
How it was run: as §1

NCI-H522 = test: NCI 60 antitumor screening (single dose); settings: Homo sapiens; NCI-H522 (non-small cell lung cancer), single dose 10 μM; read-out: Growth inhibition percentage (GI %)
How it was run: as §2

OVCAR-4 = test: NCI 60 antitumor screening (single dose); settings: Homo sapiens; OVCAR-4 (ovarian cancer), single dose 10 μM; read-out: Growth inhibition percentage (GI %)
How it was run: as §1

OVCAR-5 = test: NCI 60 antitumor screening (single dose); settings: Homo sapiens; OVCAR-5 (ovarian cancer), single dose 10 μM; read-out: Growth inhibition percentage (GI %)
How it was run: as §2

OVCAR-8 = test: NCI 60 antitumor screening (single dose); settings: Homo sapiens; OVCAR-8 (ovarian cancer), single dose 10 μM; read-out: Growth inhibition percentage (GI %)
How it was run: as §1

PC-3 = test: NCI 60 antitumor screening (single dose); settings: Homo sapiens; PC-3 (prostate cancer), single dose 10 μM; read-out: Growth inhibition percentage (GI %)
How it was run: as §1

SK-OV-3 = test: NCI 60 antitumor screening (single dose); settings: Homo sapiens; SK-OV-3 (ovarian cancer), single dose 10 μM; read-out: Growth inhibition percentage (GI %)
How it was run: as §2

SNB-19 = test: NCI 60 antitumor screening (single dose); settings: Homo sapiens; SNB-19 (CNS cancer), single dose 10 μM; read-out: Growth inhibition percentage (GI %)
How it was run: as §1

TK-10 = test: NCI 60 antitumor screening (single dose); settings: Homo sapiens; TK-10 (renal cancer), single dose 10 μM; read-out: Growth inhibition percentage (GI %)
How it was run: as §1

U251 = test: NCI 60 antitumor screening (single dose); settings: Homo sapiens, U-251; U251 (CNS cancer), single dose 10 μM; read-out: Growth inhibition percentage (GI %)
How it was run: as §2

HCT-116 = test: NCI 60 antitumor screening (single dose / five doses); settings: Homo sapiens
SNB-75 = test: as above; settings: Homo sapiens
LOX IMVI = test: as above; settings: Homo sapiens; for inhibition at 10 µM: read-out: Growth inhibition percentage (GI %)
NCI/ADR-RES = test: as above; settings: Homo sapiens; for inhibition at 10 µM: read-out: Growth inhibition percentage (GI %)
DU-145 = test: as above; settings: Homo sapiens
BT-549 = test: as above; settings: Homo sapiens
T-47D = test: as above; settings: Homo sapiens, T47D; for inhibition at 10 µM: read-out: Growth inhibition percentage (GI %)
[1] = HCT-116 (colon cancer), single dose 10 μM, read-out: Growth inhibition percentage (GI %)
[2] = SNB-75 (CNS cancer), single dose 10 μM, read-out: Growth inhibition percentage (GI %)
[3] = LOX IMVI (melanoma), single dose 10 μM
[4] = NCI/ADR-RES (ovarian cancer), single dose 10 μM
[5] = DU-145 (prostate cancer), single dose 10 μM, read-out: Growth inhibition percentage (GI %)
[6] = BT-549 (breast cancer), single dose 10 μM, read-out: Growth inhibition percentage (GI %)
[7] = T-47D (breast cancer), single dose 10 μM

Compound	inhibition at 10 µM (A549/ATCC) [%]	inhibition at 10 µM (CAKI-1) [%]	inhibition at 10 µM (HCC-2998) [%]	inhibition at 10 µM (HOP-62) [%]	inhibition at 10 µM (HS 578T) [%]	inhibition at 10 µM (KM 12) [%]	inhibition at 10 µM (M14) [%]	inhibition at 10 µM (MCF7) [%]	inhibition at 10 µM (NCI-H226) [%]	inhibition at 10 µM (NCI-H23) [%]	inhibition at 10 µM (NCI-H322M) [%]	inhibition at 10 µM (NCI-H522) [%]	inhibition at 10 µM (OVCAR-4) [%]	inhibition at 10 µM (OVCAR-5) [%]	inhibition at 10 µM (OVCAR-8) [%]	inhibition at 10 µM (PC-3) [%]	inhibition at 10 µM (SK-OV-3) [%]	inhibition at 10 µM (SNB-19) [%]	inhibition at 10 µM (TK-10) [%]	inhibition at 10 µM (U251) [%]	further results
Fc1cccc(Cl)c1/C=N/Nc1nc(N/N=C/c2c(F)cccc2Cl)nc(N2CCCCC2)n1 [compound 7l, 2,4-Bis[(E)-2-[(2-Chloro-6-fluorophenyl)methylidene]hydrazin-1-yl]-6-(piperidin-1-yl)-1,3,5-triazine]	78.4	85.9	75.7	74.1	66.7	89.2	88.1	96.9	46.1	55.2	64.2	89.6	79	72.2	74.2	81.3	60.9	74.2	72.8	73.2	inhibition at 10 µM (HCT-116; [1]): 80.5%; GI50 (HCT-116; HCT-116, five doses (0.01–100 μM), read-out: GI50): 2.83 µM; inhibition at 10 µM (SNB-75; [2]): 62.5%; GI50 (SNB-75; SNB-75, five doses (0.01–100 μM), read-out: GI50): 2.36 µM; inhibition at 10 µM (LOX IMVI; [3]): 80.4%; GI50 (LOX IMVI; LOX IMVI, five doses (0.01–100 μM), read-out: GI50): 3.77 µM; inhibition at 10 µM (NCI/ADR-RES; [4]): 84.8%; GI50 (NCI/ADR-RES; NCI/ADR-RES, five doses (0.01–100 μM), read-out: GI50): 2.76 µM; inhibition at 10 µM (DU-145; [5]): 39%; GI50 (DU-145; DU-145, five doses (0.01–100 μM), read-out: GI50): 11.7 µM; inhibition at 10 µM (BT-549; [6]): 31.6%; GI50 (BT-549; BT-549, five doses (0.01–100 μM), read-out: GI50): 4.45 µM; inhibition at 10 µM (T-47D; [7]): 89%; GI50 (T-47D; T-47D, five doses (0.01–100 μM), read-out: GI50): 1.71 µM
C/C(=N\Nc1nc(N/N=C(\C)c2ccc([N+](=O)[O-])cc2)nc(N2CCOCC2)n1)c1ccc([N+](=O)[O-])cc1 [compound 8a, 2-(Morpholin-4-yl)-4,6-bis[(E)-2-[1–(4-nitrophenyl)ethylidene]hydrazin-1-yl]-1,3,5-triazine]	26.1	30.8	3.95	13.8	21.3	17.9	25.5	25.9	58.1	42.1	13.3	38.3	22.4	4.46	36.4	23.4	-13	36.9	19.2	7.36	inhibition at 10 µM (HCT-116; HCT-116, read-out: Growth inhibition percentage (GI %)): 29.4%; inhibition at 10 µM (SNB-75; SNB-75, read-out: Growth inhibition percentage (GI %)): 19.4%; inhibition at 10 µM (LOX IMVI; LOX IMVI): 61.1%; inhibition at 10 µM (NCI/ADR-RES; NCI/ADR-RES): 31.3%; inhibition at 10 µM (DU-145; DU-145, read-out: Growth inhibition percentage (GI %)): 19%; inhibition at 10 µM (BT-549; BT-549, read-out: Growth inhibition percentage (GI %)): 32.7%; inhibition at 10 µM (T-47D): 45.1%
O=C1Nc2ccc(Cl)cc2/C1=N\Nc1nc(N/N=C2/C(=O)Nc3ccc(Cl)cc32)nc(N2CCOCC2)n1 [compound 8b, (3E)-5-Chloro-3-[2–(4-{2-[(3E)-5-chloro-2-oxo-2,3-dihydro-1H-indol-3-ylidene]hydrazin-1-yl}6-(morpholin-4-yl)-1,3,5-triazin-2-yl)hydrazin-1-ylidene]-2,3-dihydro-1H-indol-2-one]	-1.37	28	24.5	62.4	108	18.8	22.5	56.9	42.7	82.8	21.9	94.9	21.3	4.93	49.9	43.9	44.5	109	-18.5	96.2	inhibition at 10 µM (HCT-116; [1]): 54.6%; inhibition at 10 µM (SNB-75; [2]): 101%; inhibition at 10 µM (LOX IMVI; [3]): 76.8%; inhibition at 10 µM (NCI/ADR-RES; [4]): 1.85%; inhibition at 10 µM (DU-145; [5]): 11.6%; inhibition at 10 µM (BT-549; [6]): 106%; inhibition at 10 µM (T-47D; [7]): 70.7%

Source: PMC9848300, “Discovery of novel enasidenib analogues targeting inhibition of mutant isocitrate dehydrogenase 2 as antileukaemic agents” (Journal of Enzyme Inhibition and Medicinal Chemistry, 2023)
